How the values were obtained:
Type in all cases: in vivo, Sprague-Dawley male rats
[1] = system: Dextran sulfate sodium (DSS)-induced colitis; experiment: Evaluation of DSS-induced colitis by naked eyes (wet weight of large intestine, injured mucosa area); conditions: all groups: 1, 5 and 20 mg/kg/day s.c., 8 days of 4% DSS diet
Protocol: (§1) The edaravone as synthesized above was dissolved in a small amount of 1 N sodium hydroxide solution. Thereafter, the pH thereof was adjusted to be around neutral.
(§2) 6-week-old Sprague-Dawley male rats (Clea Japan, Inc.) were used. According to the method described in the previous report (Araki Y. et al., Scand J Gastroentero, 35, 1060-1067, 2000), colitis was induced to develop in the rats as follows. That is to say, 4% (w/w) dextran sulfate sodium (DSS; molecular weight: 5,000; Wako Pure Chemical Industries, Ltd., Osaka) was added to a powder diet MF (Oriental Yeast Co., Ltd.). The rats were fed with the thus obtained mixed diet at an amount of 30 g/day/rat for 8 days. […]
8 days later, the rats were subjected to anatomy. […] Thereafter, the large intestine (the colon and the rectum) was excised, and the wet weight of the organ was measured. The degree of the injured large intestinal mucosa was evaluated by naked eyes according to the method described in the previous report (Araki Y. et al., Scand J Gastroentero, 35, 1060-1067, 2000). That is, the areas of portions, on which a change in the color tone of the mucosa (redness), an attachment of blood clots, a collapse of mucosal wall area, edema, or erosion were observed, were measured. […]

[2] = system: Dextran sulfate sodium (DSS)-induced colitis; experiment: Histological evaluation of DSS-induced colitis (damage score); conditions: 8 days DSS; for damage score vs control group: FIG. 3(A)
Protocol: as §1
(§3) 6-week-old Sprague-Dawley male rats (Clea Japan, Inc.) were used. According to the method described in the previous report (Araki Y. et al., Scand J Gastroentero, 35, 1060-1067, 2000), colitis was induced to develop in the rats as follows. That is to say, 4% (w/w) dextran sulfate sodium (DSS; molecular weight: 5,000; Wako Pure Chemical Industries, Ltd., Osaka) was added to a powder diet MF (Oriental Yeast Co., Ltd.). The rats were fed with the thus obtained mixed diet at an amount of 30 g/day/rat for 8 days. With regard to edaravone administration groups, from immediately after initiation of the administration of DSS, edaravone was subcutaneously injected into the back of each rat, at a dose of 1 mg/kg/day, 5 mg/kg/day, or 20 mg/kg/day, which was dividedly administered in the morning and evening. With regard to a control group, a normal saline solution was subcutaneously injected into the back of each rat in the same above manner.
The mucosa located at 5 mm from the anus side was fixed with a Carnoy's fluid for 3 hours, and was then embedded in paraffin. Thereafter, a tissue fragment with a thickness of 5 μm was prepared, followed by hematoxylin-eosin staining. Scoring of colitis was conducted in accordance with the method described in the previous report (Araki Y. et al., Scand J Gastroentero, 35, 1060-1067, 2000). Namely, the degree and size of each of the following 3 items: (i) the absence of the mucosal epithelium, (ii) deformation of crypts, and (iii) the level of infiltration of inflammatory cells, are expressed in the following point system: 0: none; 1: slight and localized; 2: moderate and localized; 3: moderate and broad; and 4: severe and broad. The total points regarding the above 3 items were summed up, and the obtained value was defined as the histological colitis score (damage score) of a rat.
The results are shown as mean±SEM. The comparison between groups was carried out by Fisher's PLSD Test. […]

[3] = system: myeloperoxidase activity in the large intestinal mucosa; experiment: Myeloperoxidase activity in large intestinal mucosa of rats with DSS-induced colitis; conditions: 8 days DSS, FIG. 3(B)
Protocol: as §1, §2
Myeloperoxidase activity used as an indicator of inflammation in the large intestinal mucosa was measured by the method described in the previous report (Araki Y. et al., Clin Exp Immunol, 119, 264-269, 2000). […] The activity of the obtained homogenate was observed as a change in the absorbance at 460 nm obtained as a result of the reaction of H2O2 with o-dianisidin.
Hyperoxidation of lipids is an important mechanism regarding tissue injury. […] Accordingly, the concentrations of MDA and 4-HNE in the large intestinal mucosa were measured, and the obtained values were used as indicators of the state of reactive oxygen species (ROS) in tissues (Matsumura N. et al., Pancreas, 22, 53-7, 2001). […]

[4] = system: MDA and 4-HNE in the large intestinal mucosa; experiment: Concentrations of MDA and 4-HNE in large intestinal mucosa of rats with DSS-induced colitis; conditions: all groups: 1, 5 and 20 mg/kg/day s.c., 8 days DSS; no significant differences among the administration groups; FIG. 4(A)
Protocol: as §1, §2
Hyperoxidation of lipids is an important mechanism regarding tissue injury. […] Accordingly, the concentrations of MDA and 4-HNE in the large intestinal mucosa were measured, and the obtained values were used as indicators of the state of reactive oxygen species (ROS) in tissues (Matsumura N. et al., Pancreas, 22, 53-7, 2001). That is, the large intestinal mucosa was homogenized with 9 times its volume of 50 mmol/l Tris-buffer (pH 8.0) containing 0.5% Triton X-100, and the concentrations were measured using an assay kit, Lipid peroxidation assay kit (Calbiochem, La Jolla, Calif., U.S.A.). […]

[5] = system: interleukin-6 in the plasma; experiment: Concentration of interleukin-6 in plasma of rats with DSS-induced colitis (ELISA); conditions: 8 days DSS, FIG. 4(B)
Protocol: as §1
as §3, with “With regard to a control group, a normal saline solution was subcutaneously injected into the back of each rat in the same above manner.” left out
The concentration of interleukin-6 in the plasma was measured as an indicator of a systemic inflammatory reaction. That is to say, the blood was centrifuged at 10,000 rpm, and then the concentration of interleukin-6 in the plasma was measured by the ELISA method (Rat IL-6 ELISA KIT, BioSource Europe, S.A., Belgium). […]

[6] = all groups: 1, 5 and 20 mg/kg/day s.c.

CC1=NN(c2ccccc2)C(=O)C1 [edaravone, 3-methyl-1-phenyl-2-pyrazolin-5-one]
injured mucosa area vs control group ([1]; FIG. 1(B)): significantly smaller
wet weight of the large intestine vs control group ([1]; divided morning and evening, FIG. 1(A)): significantly lower
damage score vs control group ([2]; 20 mg/kg/day s.c.): significantly lower
edema formed in the submucosal layer and infiltration of inflammatory cells (large intestine tissue image) ([2]; 1, 5 and 20 mg/kg/day s.c., hematoxylin-eosin, FIG. 2): suppressed
damage score vs control group [2, 6]: lower
myeloperoxidase activity in the large intestinal mucosa vs control group ([3]; 20 mg/kg/day s.c.): significantly lower
myeloperoxidase activity in the large intestinal mucosa vs control group [3, 6]: lower
concentrations of MDA and 4-HNE in the large intestinal mucosa vs control group [4]: lower
concentration of IL-6 in the plasma vs control group ([5]; 20 mg/kg/day s.c.): significantly lower
concentration of IL-6 in the plasma vs control group [5, 6]: lower

From patent US20060135588A1, “Preventive and/or therapeutic drugs for inflammatory intestinal diseases” (priority 2002, published 2006)
